Experimental data taken from ChEMBL document CHEMBL1201862, “PubChem BioAssay data set” (2004).
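Cultured in 96-well plates, cells were exposed to test compound for 48 hours across five concentrations. GI50 is the concentration that inhibits growth by half.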 Calls of active or inactive are those of the source. No stated cut-off is given here; in the data, active = GI50 up to about 1.1 µM and inactive = higher.

What was measured:
Assay in all cases: NCI anticancer screen, dose series, 48 h
[1] = system: 786-0
[2] = system: HT-29
[3] = system: K562
[4] = system: A498
[5] = system: DU-145
[6] = system: SN12C
[7] = system: SNB-75
[8] = system: CAKI-1
[9] = system: SK-OV-3
[10] = system: HCC 2998
[11] = system: BT-549
[12] = system: MDA-MB-231
[13] = system: Hs-578T
[14] = system: HCT-116
[15] = system: OVCAR-5
[16] = system: U-251
[17] = system: LOX IMVI
[18] = system: MOLT-4
[19] = system: SNB-19
[20] = system: OVCAR-4
[21] = system: NCI/ADR-RES
[22] = system: PC-3
[23] = system: MDA-MB-435
[24] = system: RPMI-8226
[25] = system: ACHN
[26] = system: HL-60
[27] = system: OVCAR-8
[28] = system: SK-MEL-5
[29] = system: Malme-3M
[30] = system: UACC-257
[31] = system: T47D
[32] = system: KM12
[33] = system: SR
[34] = system: IGROV-1
[35] = system: NCI-H226
[36] = system: MDA-N
[37] = system: SF-268
[38] = system: MCF7
[39] = system: HCT-15
[40] = system: SK-MEL-2
[41] = system: NCI-H522
[42] = system: SK-MEL-28
[43] = system: CCRF-CEM
[44] = system: SF-539
[45] = system: RXF 393
[46] = system: HOP-92
[47] = system: UACC-62
[48] = system: COLO 205
[49] = system: TK-10
[50] = system: UO-31
[51] = system: SW-620
[52] = system: SF-295
[53] = system: HOP-62
[54] = system: A549
[55] = system: OVCAR-3
[56] = system: NCI-H460
[57] = system: NCI-H23
[58] = system: EKVX
[59] = system: M14
[60] = system: M19-MEL
[61] = system: KM-20L2
[62] = system: LXFL 529
[63] = system: DMS-273
[64] = system: DLD-1
[65] = system: SNB-78
[66] = system: DMS-114
[67] = system: HOP-18

In the case of `O=C1NCC(CSc2nc3cc(C4CCCc5c4[nH]c4ccccc54)ccc3o2)N1` (stereo unspecified), the GI50 [1] is reported as 43.3 µM (inactive), the GI50 [2] is reported as 21.8 µM (inactive) and the GI50 [3] is reported as 31.5 µM (inactive). The GI50 [4] was 18 µM (inactive), the GI50 [5] was 56 µM (inactive) and the GI50 [6] was 49.7 µM (inactive). The GI50 [7] was > 100 µM (inactive), the GI50 [8] was 41.5 µM (inactive) and the GI50 [9] was > 100 µM (inactive). For the same compound, the GI50 [10] was 95.1 µM (inactive), the GI50 [11] was 47.1 µM (inactive) and the GI50 [12] was 23.1 µM (inactive). For the same compound, the GI50 [13] was 38.1 µM (inactive), the GI50 [14] was 33.4 µM (inactive) and the GI50 [15] was 61.8 µM (inactive). The GI50 [16] was 51.5 µM (inactive), the GI50 [17] was 32.5 µM (inactive) and the GI50 [18] was 15.2 µM (inactive). For the same compound, the GI50 [19] was 53.7 µM (inactive), the GI50 [20] was 32.2 µM (inactive) and the GI50 [21] was 50.4 µM (inactive). For the same compound, the GI50 [22] was 37.2 µM (inactive), the GI50 [23] was 30.9 µM (inactive) and the GI50 [24] was 22.4 µM (inactive). The GI50 [25] was 34.2 µM (inactive), the GI50 [26] was 43.9 µM (inactive) and the GI50 [27] was 30.8 µM (inactive). The GI50 [28] was 28.5 µM (inactive), the GI50 [29] was 53.7 µM (inactive) and the GI50 [30] was 45.1 µM (inactive). The GI50 [31] was 25.8 µM (inactive), the GI50 [32] was 56.4 µM (inactive) and the GI50 [33] was 14.7 µM (inactive). The GI50 [34] was 33 µM (inactive), the GI50 [35] was 62.7 µM (inactive) and the GI50 [36] was 42.8 µM (inactive). For the same compound, the GI50 [37] was 36 µM (inactive), the GI50 [38] was 39.7 µM (inactive) and the GI50 [39] was 24.5 µM. For the same compound, the GI50 [40] was 39.3 µM (inactive), the GI50 [41] was 29.2 µM (inactive) and the GI50 [42] was 80.2 µM (inactive). For the same compound, the GI50 [43] was 35.2 µM (inactive), the GI50 [44] was 36.4 µM (inactive) and the GI50 [45] was 26.5 µM (inactive). For the same compound, the GI50 [46] was 21.2 µM (inactive), the GI50 [47] was 39.6 µM (inactive) and the GI50 [48] was 61.4 µM (inactive). For the same compound, the GI50 [49] was 72.4 µM (inactive), the GI50 [50] was 53.1 µM (inactive) and the GI50 [51] was 39.4 µM (inactive). For the same compound, the GI50 [52] was 43.5 µM (inactive), the GI50 [53] was > 100 µM (inactive) and the GI50 [54] was 22.5 µM (inactive). The GI50 [55] was 44.1 µM (inactive), the GI50 [56] was 72.3 µM (inactive) and the GI50 [57] was 32.5 µM (inactive). The GI50 [58] was 25.6 µM (inactive) and the GI50 [59] was 45.1 µM (inactive).

For `CN(C)C(=O)OC1C(=O)N(C)c2ccc(Cl)cc2C2(c3ccccc3)N1C2(Cl)Cl` (stereo unspecified), the GI50 [2] was > 100 µM (inactive), the GI50 [60] was > 100 µM (inactive) and the GI50 [3] was 56.6 µM (inactive). For the same compound, the GI50 [6] was 59.3 µM (inactive), the GI50 [7] was 69.3 µM (inactive) and the GI50 [8] was > 100 µM (inactive). For the same compound, the GI50 [9] was 82.8 µM (inactive), the GI50 [10] was > 100 µM (inactive) and the GI50 [14] was 62.7 µM (inactive). The GI50 [15] was > 100 µM (inactive), the GI50 [16] was 45.3 µM (inactive) and the GI50 [17] was > 100 µM (inactive). The GI50 [18] was 47.9 µM (inactive), the GI50 [20] was > 100 µM (inactive) and the GI50 [24] was 46.5 µM (inactive). For the same compound, the GI50 [25] was > 100 µM (inactive), the GI50 [26] was 29.4 µM (inactive) and the GI50 [27] was 95.5 µM (inactive). The GI50 [28] was 40.3 µM (inactive), the GI50 [61] was 40 µM (inactive) and the GI50 [29] was > 100 µM (inactive). The GI50 [30] was 66.8 µM (inactive), the GI50 [32] was 62.1 µM (inactive) and the GI50 [33] was 49.7 µM (inactive). For the same compound, the GI50 [34] was > 100 µM (inactive), the GI50 [35] was 38.7 µM (inactive) and the GI50 [37] was > 100 µM (inactive). For the same compound, the GI50 [39] was 60.4 µM, the GI50 [40] was > 100 µM (inactive) and the GI50 [41] was 46 µM (inactive). For the same compound, the GI50 [42] was > 100 µM (inactive), the GI50 [62] was > 100 µM (inactive) and the GI50 [63] was 72.4 µM (inactive). For the same compound, the GI50 [43] was 75.2 µM (inactive), the GI50 [45] was 69.2 µM (inactive) and the GI50 [46] was 18.7 µM (inactive). For the same compound, the GI50 [47] was 64.7 µM (inactive), the GI50 [48] was > 100 µM (inactive) and the GI50 [49] was 56.5 µM (inactive). The GI50 [50] was 49.2 µM (inactive), the GI50 [51] was > 100 µM (inactive) and the GI50 [52] was 77.1 µM (inactive). For the same compound, the GI50 [53] was 54.8 µM (inactive), the GI50 [64] was 55.1 µM (inactive) and the GI50 [55] was 53.8 µM (inactive). The GI50 [56] was > 100 µM (inactive), the GI50 [57] was 47.8 µM (inactive) and the GI50 [58] was 44.4 µM (inactive). The GI50 [59] was > 100 µM (inactive).

`CCCSc1nc(COC(=O)NC)c(COC(=O)NC)n1C` was tested, and the GI50 [1] was 69.5 µM (inactive), the GI50 [60] was 88.1 µM (inactive) and the GI50 [3] was 46.2 µM (inactive). For the same compound, the GI50 [4] was 46 µM (inactive), the GI50 [65] was 63.2 µM (inactive) and the GI50 [6] was 88.7 µM (inactive). For the same compound, the GI50 [7] was 49 µM (inactive), the GI50 [8] was 32.8 µM (inactive) and the GI50 [16] was 98.2 µM (inactive). For the same compound, the GI50 [18] was 21.2 µM (inactive), the GI50 [20] was 93.3 µM (inactive) and the GI50 [24] was 25 µM (inactive). The GI50 [25] was 23.9 µM (inactive), the GI50 [26] was 29.4 µM (inactive) and the GI50 [29] was 86.5 µM (inactive). The GI50 [33] was 29.4 µM (inactive), the GI50 [40] was 53.2 µM (inactive) and the GI50 [42] was > 100 µM (inactive). The GI50 [62] was 36.3 µM (inactive), the GI50 [63] was 48.9 µM (inactive) and the GI50 [43] was 29.6 µM (inactive). For the same compound, the GI50 [44] was 64.1 µM (inactive), the GI50 [46] was 56 µM (inactive) and the GI50 [47] was 80.2 µM (inactive). The GI50 [50] was 57.1 µM (inactive), the GI50 [53] was 80.7 µM (inactive) and the GI50 [64] was > 100 µM (inactive). For the same compound, the GI50 [56] was 39.7 µM (inactive), the GI50 [57] was 54.2 µM (inactive) and the GI50 [66] was 58.2 µM (inactive). The GI50 [59] was > 100 µM (inactive).

In the case of `CCOC(=O)N1CCC(N[C@@H]2c3cc4c(cc3[C@@H](c3cc(OC)c(O)c(OC)c3)[C@H]3C(=O)OC[C@@H]32)OCO4)CC1`, the GI50 [1] is reported as 1.15 µM (inactive), the GI50 [2] is reported as 4.13 µM (inactive) and the GI50 [60] is reported as 3.12 µM (inactive). The GI50 [3] was 3.98 µM (inactive), the GI50 [4] was 0.358 µM (active) and the GI50 [65] was 10.2 µM (inactive). For the same compound, the GI50 [7] was 2.67 µM (inactive), the GI50 [8] was 0.478 µM (active) and the GI50 [9] was 0.8 µM (active). For the same compound, the GI50 [14] was 3.4 µM (inactive), the GI50 [17] was 1.26 µM (inactive) and the GI50 [19] was 0.69 µM (active). The GI50 [25] was 0.431 µM (active), the GI50 [27] was 1.85 µM (inactive) and the GI50 [28] was 1.48 µM (inactive). The GI50 [29] was 3.46 µM (inactive), the GI50 [30] was 5.16 µM (inactive) and the GI50 [32] was 2.86 µM (inactive). For the same compound, the GI50 [34] was 2.9 µM (inactive), the GI50 [37] was 3.5 µM (inactive) and the GI50 [39] was 0.796 µM. For the same compound, the GI50 [40] was 5.81 µM (inactive), the GI50 [42] was 7.08 µM (inactive) and the GI50 [62] was 7.53 µM (inactive). For the same compound, the GI50 [43] was 0.697 µM (active), the GI50 [44] was 1.23 µM (inactive) and the GI50 [46] was 0.5 µM (active). The GI50 [47] was 1.03 µM (active), the GI50 [48] was 4.3 µM (inactive) and the GI50 [50] was 1.02 µM (active). For the same compound, the GI50 [51] was 2.58 µM (inactive), the GI50 [52] was 0.499 µM (active) and the GI50 [53] was 0.714 µM (active). For the same compound, the GI50 [64] was 5.21 µM (inactive), the GI50 [55] was 5.06 µM (inactive) and the GI50 [56] was 0.065 µM (active). For the same compound, the GI50 [57] was 0.527 µM (active), the GI50 [58] was 2.69 µM (inactive) and the GI50 [59] was 1.7 µM (inactive).

In the case of `O=C(O)/C=C/c1c[nH]c(=O)[nH]c1=O`, the GI50 [60] is reported as > 500 µM (inactive), the GI50 [3] is reported as > 500 µM (inactive) and the GI50 [7] is reported as > 500 µM (inactive). The GI50 [8] was > 500 µM (inactive), the GI50 [9] was > 500 µM (inactive) and the GI50 [18] was > 281 µM (inactive). For the same compound, the GI50 [21] was > 344 µM (inactive), the GI50 [26] was > 446 µM (inactive) and the GI50 [61] was > 500 µM (inactive). The GI50 [35] was 489 µM (inactive), the GI50 [38] was > 500 µM (inactive) and the GI50 [63] was > 500 µM (inactive). The GI50 [43] was > 316 µM (inactive), the GI50 [52] was > 232 µM (inactive) and the GI50 [54] was > 500 µM (inactive). The GI50 [67] was > 500 µM (inactive), the GI50 [57] was > 500 µM (inactive) and the GI50 [66] was > 500 µM (inactive).
